Test results taken from ChEMBL document CHEMBL5241112, “Insights into the recent progress in the medicinal chemistry of pyranopyrimidine analogs” (RSC Med Chem, 2022).
≈ marks a conversion by molar mass, not a printed value.

Legend:
Serratia marcescens = assay: Antibacterial activity against Serratia marcescens assessed as diameter of inhibition zone by disc diffusion method; assay type: functional
Aspergillus ochraceus = assay: Antifungal activity against Aspergillus ochraceus assessed as diameter of inhibition zone by disc diffusion method; assay type: functional
Penicillium chrysogenum = assay: Antifungal activity against Penicillium chrysogenum assessed as diameter of inhibition zone by disc diffusion method; assay type: functional
Staphylococcus aureus [1] = assay: Antibacterial activity against Staphylococcus aureus assessed as diameter of inhibition zone at 100 ug/ml by disc diffusion method; assay type: functional; conditions: read-out: DIZ
Klebsiella pneumoniae [2] = assay: Antibacterial activity against Klebsiella pneumoniae assessed as diameter of inhibition zone at 100 ug/ml by disc diffusion method; assay type: functional; conditions: read-out: DIZ
Aspergillus flavus [3] = assay: Antifungal activity against Aspergillus flavus assessed as diameter of inhibition zone at 100 ug/ml by agar disc diffusion method; assay type: functional; conditions: read-out: DIZ
Escherichia coli [4] = assay: Antibacterial activity against Escherichia coli assessed as diameter of inhibition zone at 100 ug/ml by disc diffusion method; assay type: functional; conditions: read-out: DIZ
Escherichia coli [5] = assay: Antimicrobial activity against Escherichia coli ATCC 25922 assessed as diameter of inhibition zone at 20 mg/ml incubated for 24 hrs by disk diffusion method; assay type: functional; conditions: read-out: DIZ
Aspergillus niger = assay: Antifungal activity against Aspergillus niger assessed as inhibition of fungal growth; assay type: functional
HCT-116 = assay: Anticancer activity against human HCT-116 cells assessed as reduction in cell viability incubated for 96 hrs by MTT assay; assay type: functional, cell-based; conditions: HCT-116, 96 h
Aspergillus flavus [6] = assay: Antifungal activity against Aspergillus flavus assessed as inhibition of fungal growth; assay type: functional
Candida albicans [7] = assay: Antifungal activity against Candida albicans assessed as inhibition of fungal growth; assay type: functional
Salmonella typhimurium [8] = assay: Antimicrobial activity against Salmonella typhimurium ATCC 19430 assessed as diameter of inhibition zone at 20 mg/ml incubated for 24 hrs by disk diffusion method; assay type: functional, Salmonella enterica subsp. enterica serovar Typhimurium; conditions: Salmonella enterica, read-out: DIZ
Klebsiella pneumoniae [9] = assay: Antimicrobial activity against Klebsiella pneumoniae ATCC 15380 assessed as diameter of inhibition zone at 20 mg/ml incubated for 24 hrs by disk diffusion method; assay type: functional; conditions: read-out: DIZ
Escherichia coli [10] = assay: Antibacterial activity against Escherichia coli ATCC 25922 assessed as diameter of inhibition zone at 50 mg/ml incubated for 24 hrs by paper disk diffusion method; assay type: functional; conditions: read-out: DIZ
Aspergillus fumigatus = assay: microbe, parasite or virus in culture; assay type: functional; conditions: ATCC204305, dose 50 mg/ml, time 24 hrs, read-out: DIZ
Klebsiella pneumoniae [11] = assay: Antibacterial activity against Klebsiella pneumoniae MGH 78578 assessed as diameter of inhibition zone at 50 mg/ml incubated for 24 hrs by paper disk diffusion method; assay type: functional; conditions: read-out: DIZ
Pseudomonas aeruginosa [12] = assay: Antimicrobial activity against Pseudomonas aeruginosa ATCC 27853 assessed as diameter of inhibition zone at 20 mg/ml incubated for 24 hrs by disk diffusion method; assay type: functional; conditions: read-out: DIZ
Candida albicans [13] = assay: Antifungal activity against Candida albicans assessed as diameter of inhibition zone at 100 ug/ml by agar disc diffusion method; assay type: functional; conditions: read-out: DIZ
Staphylococcus aureus [14] = assay: Antimicrobial activity against Staphylococcus aureus assessed as diameter of inhibition zone at 5.0 mg/ml incubated for 12 hrs by agar disk diffusion method; assay type: functional; conditions: read-out: DIZ
Bacillus cereus [15] = assay: Antimicrobial activity against Bacillus cereus assessed as diameter of inhibition zone at 2.5 mg/ml incubated for 12 hrs by agar disk diffusion method; assay type: functional; conditions: read-out: DIZ
Escherichia coli [16] = assay: Antimicrobial activity against Escherichia coli assessed as diameter of inhibition zone at 5.0 mg/ml incubated for 12 hrs by agar disk diffusion method; assay type: functional; conditions: read-out: DIZ
Bacillus cereus [17] = assay: Antimicrobial activity against Bacillus cereus assessed as diameter of inhibition zone at 1.2 mg/ml incubated for 12 hrs by agar disk diffusion method; assay type: functional; conditions: read-out: DIZ
Staphylococcus aureus [18] = assay: Antimicrobial activity against Staphylococcus aureus assessed as diameter of inhibition zone at 2.5 mg/ml incubated for 12 hrs by agar disk diffusion method; assay type: functional; conditions: read-out: DIZ
Bacillus cereus [19] = assay: Antimicrobial activity against Bacillus cereus assessed as diameter of inhibition zone at 5.0 mg/ml incubated for 12 hrs by agar disk diffusion method; assay type: functional; conditions: read-out: DIZ
Pseudomonas aeruginosa [20] = assay: Antimicrobial activity against Pseudomonas aeruginosa assessed as diameter of inhibition zone at 5.0 mg/ml incubated for 12 hrs by agar disk diffusion method; assay type: functional; conditions: read-out: DIZ
Pseudomonas aeruginosa [21] = assay: Antimicrobial activity against Pseudomonas aeruginosa assessed as diameter of inhibition zone at 1.2 mg/ml incubated for 12 hrs by agar disk diffusion method; assay type: functional; conditions: read-out: DIZ
Pseudomonas aeruginosa [22] = assay: Antimicrobial activity against Pseudomonas aeruginosa assessed as diameter of inhibition zone at 2.5 mg/ml incubated for 12 hrs by agar disk diffusion method; assay type: functional; conditions: read-out: DIZ
Staphylococcus aureus [23] = assay: Antimicrobial activity against Staphylococcus aureus assessed as diameter of inhibition zone at 1.2 mg/ml incubated for 12 hrs by agar disk diffusion method; assay type: functional; conditions: read-out: DIZ
Escherichia coli [24] = assay: Antimicrobial activity against Escherichia coli assessed as diameter of inhibition zone at 2.5 mg/ml incubated for 12 hrs by agar disk diffusion method; assay type: functional; conditions: read-out: DIZ
[25] = Antiproliferative activity against human […] cells assessed as reduction in cell proliferation; assay type: functional, cell-based
MCF7 = assay: Antiproliferative activity against human MCF7 cells assessed as reduction in cell proliferation; assay type: functional, cell-based
HepG2 = assay: Antiproliferative activity against human HepG2 cells assessed as reduction in cell proliferation; assay type: functional, cell-based
Pseudomonas aeruginosa [26] = assay: Antibacterial activity against Pseudomonas aeruginosa MTCC 741 assessed as diameter of inhibition zone at 0.1 mg/ml incubated for 24 hrs by agar well diffusion method; assay type: functional; conditions: read-out: DIZ
Escherichia coli [27] = assay: Antibacterial activity against Escherichia coli MTCC 723 assessed as diameter of inhibition zone at 0.1 mg/ml incubated for 24 hrs by agar well diffusion method; assay type: functional; conditions: read-out: DIZ
[28] = Inhibition of porcine pancreatic alpha-amylase preincubated for 10 mins followed by substrate starch addition and measured after 10 mins by colorimetric analysis; set-up: species or system Sus scrofa
Alpha-glucosidase = Alpha-glucosidase (Saccharomyces cerevisiae S288c, UniProt P53341+P38158+P07265); assay: Inhibition of Saccharomyces cerevisiae alpha-glucosidase preincubated for 5 mins followed by PNP-GLUC substrate addition and measured after 20 mins by spectroscopic analysis; assay type: protein assay
Albumin = Albumin (Bos taurus, UniProt P02769); assay: […] bovine serum albumin denaturation incubated for 23 mins by UV-Visible spectrophotometry
Pseudomonas aeruginosa [29] = assay: Antibacterial activity against Pseudomonas aeruginosa assessed as bacterial growth inhibition by broth microdilution method; assay type: functional
[30] = test system: Mycobacterium tuberculosis; assay: Antitubercular activity against Mycobacterium tuberculosis H37Rv assessed as bacterial growth inhibition incubated for 24 hrs by MABA assay; assay type: functional
Klebsiella pneumoniae [31] = assay: Antibacterial activity against Klebsiella pneumoniae assessed as bacterial growth inhibition by broth microdilution method; assay type: functional
Salmonella typhimurium [32] = assay: Antibacterial activity against Salmonella typhimurium MTCC 98 assessed as bacterial growth inhibition by broth microdilution method; assay type: functional, Salmonella enterica subsp. enterica serovar Typhimurium; conditions: Salmonella enterica
Staphylococcus aureus [33] = assay: Antibacterial activity against Staphylococcus aureus assessed as bacterial growth inhibition by broth microdilution method; assay type: functional
Escherichia coli [34] = assay: Antibacterial activity against Escherichia coli assessed as bacterial growth inhibition by broth microdilution method; assay type: functional
Staphylococcus aureus [35] = assay: Antibacterial activity against Staphylococcus aureus assessed as inhibition of bacterial growth; assay type: functional
Klebsiella pneumoniae [36] = assay: Antibacterial activity against Klebsiella pneumoniae MTCC 109 assessed as diameter of inhibition zone at 0.1 mg/ml incubated for 24 hrs by agar well diffusion method; assay type: functional; conditions: read-out: DIZ

For `Cc1nc2c3c(ncn2n1)Oc1ccc2cc(Br)ccc2c1C3`, the “diameter of the inhibition zone (DIZ)” value (Serratia marcescens) was 23 mm, the “diameter of the inhibition zone (DIZ)” value (Aspergillus ochraceus) was 17 mm and the “diameter of the inhibition zone (DIZ)” value (Penicillium chrysogenum) was 13 mm.
With `CCOC(=O)C1=C(C)Oc2nc(C)n(Cc3cn(-c4cccc(F)c4)nn3)c(=O)c2C1c1ccc([N+](=O)[O-])cc1` (centres undefined) the zone of inhibition at 100 µg/mL (Staphylococcus aureus [1]) was 14.5 mm, the zone of inhibition at 100 µg/mL (Klebsiella pneumoniae [2]) was 14.5 mm and the zone of inhibition at 100 µg/mL (Aspergillus flavus [3]) was 14.5 mm. It also gave a zone of inhibition at 100 µg/mL (Escherichia coli [4]) of 15.5 mm.
For `N#CC1=C(N)Oc2[nH]c(=O)[nH]c(=O)c2C1c1cccs1` (centres undefined), the zone of inhibition at 20000 µg/mL (Escherichia coli [5]) was 14 mm, the MIC (Aspergillus niger) was 162 µg/mL (≈ 564 µM) and the IC50 (HCT-116) was 2.76 µM. For the same compound, the MIC (Aspergillus flavus [6]) was 150 µg/mL (≈ 520 µM), the MIC (Candida albicans [7]) was 125 µg/mL (≈ 434 µM) and the zone of inhibition at 20000 µg/mL (Salmonella typhimurium [8]) was 20 mm. For the same compound, the zone of inhibition at 20000 µg/mL (Klebsiella pneumoniae [9]) was 16 mm.
Compound `Nc1ncnc2c1C(c1ccc(Cl)cc1)C=C(c1cc3ccccc3oc1=O)O2` (centres undefined) has a zone of inhibition at 50000 µg/mL (Escherichia coli [10]) of 10 mm, a zone of inhibition at 50000 µg/mL (Aspergillus fumigatus) of 10 mm and a zone of inhibition at 50000 µg/mL (Klebsiella pneumoniae [11]) of 14 mm.
`Cc1ccc(C2C(C#N)=C(N)Oc3[nH]c(=O)[nH]c(=O)c32)s1` (centres undefined) showed a zone of inhibition at 20000 µg/mL (Escherichia coli [5]) of 14 mm, a zone of inhibition at 20000 µg/mL (Pseudomonas aeruginosa [12]) of 18 mm and a zone of inhibition at 20000 µg/mL (Klebsiella pneumoniae [9]) of 16 mm.
Work on `CCOC(=O)C1=C(C)Oc2nc(C)n(Cc3cn(-c4cccc([N+](=O)[O-])c4)nn3)c(=O)c2C1c1ccc([N+](=O)[O-])cc1` (centres undefined) yielded a zone of inhibition at 100 µg/mL (Staphylococcus aureus [1]) of 16 mm, a zone of inhibition at 100 µg/mL (Candida albicans [13]) of 16.5 mm and a zone of inhibition at 100 µg/mL (Escherichia coli [4]) of 15 mm.
`N#CC1=C(N)Oc2[nH]c(=O)[nH]c(=O)c2C1c1ccncc1` (centres undefined) showed a zone of inhibition at 5000 µg/mL (Staphylococcus aureus [14]) of 14 mm, a zone of inhibition at 2500 µg/mL (Bacillus cereus [15]) of 15 mm and a zone of inhibition at 5000 µg/mL (Escherichia coli [16]) of 17 mm. It also gave a zone of inhibition at 1200 µg/mL (Bacillus cereus [17]) of 10 mm, a zone of inhibition at 2500 µg/mL (Staphylococcus aureus [18]) of 10 mm and a zone of inhibition at 5000 µg/mL (Bacillus cereus [19]) of 19 mm. For the same compound, the zone of inhibition at 5000 µg/mL (Pseudomonas aeruginosa [20]) was 19 mm, the zone of inhibition at 1200 µg/mL (Pseudomonas aeruginosa [21]) was 12 mm and the zone of inhibition at 2500 µg/mL (Pseudomonas aeruginosa [22]) was 16 mm. It also gave a zone of inhibition at 1200 µg/mL (Staphylococcus aureus [23]) of 8 mm and a zone of inhibition at 2500 µg/mL (Escherichia coli [24]) of 13 mm.
Work on `c1ccc(-c2nn(-c3ccccc3)cc2C2c3c(ccc4ccccc34)Oc3ncn4ncnc4c32)cc1` (centres undefined) yielded an IC50 [25] of 4.9 µM, an IC50 (MCF7) of 10 µM and an IC50 (HepG2) of 9.04 µM.
For `O=C(C1=C(c2ccccc2O)Oc2[nH]c(=S)[nH]c(=O)c2C1c1ccc(Cl)cc1)N1CCCCC1` (centres undefined), the zone of inhibition at 100 µg/mL (Pseudomonas aeruginosa [26]) was 13.1 mm, the zone of inhibition at 100 µg/mL (Escherichia coli [27]) was 14.1 mm and the IC50 [28] was 9.9 µM. For the same compound, the IC50 (Alpha-glucosidase) was 4021 µM and the IC50 (Albumin) was 26.7 µM.
For `NNc1ncnc2c1C(c1cn(-c3ccccc3)nc1-c1ccccc1)c1c(ccc3ccccc13)O2` (centres undefined), the IC50 [25] was 4.9 µM, the IC50 (MCF7) was 9.89 µM and the IC50 (HepG2) was 9.26 µM.
For `N=c1c2c(ncn1-c1ccccc1O)Oc1ccc3ccccc3c1C2c1cn(-c2ccccc2)nc1-c1ccccc1` (centres undefined), the IC50 [25] was 4.9 µM, the IC50 (MCF7) was 2.67 µM and the IC50 (HepG2) was 3.41 µM.
`O=C(O)c1cn(C2CC2)c2cc(N3CCNCC3)c(F)cc2c1=O` [CIPROFLOXACIN] showed an MIC (Pseudomonas aeruginosa [29]) of 3.12 µg/mL (≈ 9.42 µM), an MIC [30] of 3.12 µg/mL (≈ 9.43 µM) and an MIC (Klebsiella pneumoniae [31]) of 3.12 µg/mL (≈ 9.42 µM). It also gave an MIC (Salmonella typhimurium [32]) of 25 µg/mL (≈ 75.4 µM), an MIC (Staphylococcus aureus [33]) of 3.12 µg/mL (≈ 9.42 µM) and an MIC (Escherichia coli [34]) of 3.12 µg/mL (≈ 9.42 µM). The MIC (Staphylococcus aureus [35]) was 50 µg/mL (≈ 151 µM).
`Cc1ccc(S(=O)(=O)Nn2cnc3c(c2=N)C(c2cn(-c4ccccc4)nc2-c2ccccc2)c2c(ccc4ccccc24)O3)cc1` (centres undefined) showed an IC50 [25] of 4.9 µM, an IC50 (MCF7) of 9.29 µM and an IC50 (HepG2) of 10 µM.
Work on `O=C(C1=C(c2ccccc2O)Oc2[nH]c(=S)[nH]c(=O)c2C1c1ccccc1O)N1CCCCC1` (centres undefined) yielded a zone of inhibition at 100 µg/mL (Pseudomonas aeruginosa [26]) of 10.1 mm, a zone of inhibition at 100 µg/mL (Escherichia coli [27]) of 12.2 mm and an IC50 [28] of 20.1 µM. For the same compound, the IC50 (Alpha-glucosidase) was 6197 µM, the IC50 (Albumin) was 26 µM and the zone of inhibition at 100 µg/mL (Klebsiella pneumoniae [36]) was 11.6 mm.
